Eleven molecules from patent publication US11370773B1, “Inhibiting human integrin (alpha-4) (beta-7)” (Morphic Therapeutic, Inc., priority 2019, dated 2022) can be followed below.

Each structure is given as a SMILES string.

In the test the target is T1, α4β7 (Homo sapiens, UniProt P13612+P26010).
T1 construct: α4β7 expressing cells (RPMI-8866); endogenous in cells; host or cells: RPMI 8866
T1 sequence (P13612 34-1032): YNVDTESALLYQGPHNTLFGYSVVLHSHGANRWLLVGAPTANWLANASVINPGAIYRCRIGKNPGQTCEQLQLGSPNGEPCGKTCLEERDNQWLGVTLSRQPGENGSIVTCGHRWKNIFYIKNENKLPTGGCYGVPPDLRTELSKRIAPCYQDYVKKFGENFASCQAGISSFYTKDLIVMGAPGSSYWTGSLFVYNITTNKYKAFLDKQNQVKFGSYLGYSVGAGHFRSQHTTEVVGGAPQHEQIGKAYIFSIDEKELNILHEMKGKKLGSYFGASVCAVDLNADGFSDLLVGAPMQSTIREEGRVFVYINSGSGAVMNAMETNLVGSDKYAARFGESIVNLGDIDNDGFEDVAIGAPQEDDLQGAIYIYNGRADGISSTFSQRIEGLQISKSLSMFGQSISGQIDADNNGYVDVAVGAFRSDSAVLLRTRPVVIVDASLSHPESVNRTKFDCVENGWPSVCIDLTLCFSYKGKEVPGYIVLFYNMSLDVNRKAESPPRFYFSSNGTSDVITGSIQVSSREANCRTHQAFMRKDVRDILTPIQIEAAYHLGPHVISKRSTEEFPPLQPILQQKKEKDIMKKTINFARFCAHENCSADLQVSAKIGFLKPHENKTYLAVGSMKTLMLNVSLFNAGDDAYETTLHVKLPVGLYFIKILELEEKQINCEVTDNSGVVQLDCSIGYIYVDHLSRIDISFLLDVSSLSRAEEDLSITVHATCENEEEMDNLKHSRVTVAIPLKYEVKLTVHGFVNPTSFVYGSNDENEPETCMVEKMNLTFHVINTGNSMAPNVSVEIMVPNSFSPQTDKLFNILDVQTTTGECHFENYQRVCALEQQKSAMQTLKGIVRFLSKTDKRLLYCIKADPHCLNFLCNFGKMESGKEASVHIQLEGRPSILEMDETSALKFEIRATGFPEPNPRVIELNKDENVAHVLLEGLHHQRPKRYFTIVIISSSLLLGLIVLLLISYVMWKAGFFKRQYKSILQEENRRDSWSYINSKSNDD
T1 sequence (P26010 20-798): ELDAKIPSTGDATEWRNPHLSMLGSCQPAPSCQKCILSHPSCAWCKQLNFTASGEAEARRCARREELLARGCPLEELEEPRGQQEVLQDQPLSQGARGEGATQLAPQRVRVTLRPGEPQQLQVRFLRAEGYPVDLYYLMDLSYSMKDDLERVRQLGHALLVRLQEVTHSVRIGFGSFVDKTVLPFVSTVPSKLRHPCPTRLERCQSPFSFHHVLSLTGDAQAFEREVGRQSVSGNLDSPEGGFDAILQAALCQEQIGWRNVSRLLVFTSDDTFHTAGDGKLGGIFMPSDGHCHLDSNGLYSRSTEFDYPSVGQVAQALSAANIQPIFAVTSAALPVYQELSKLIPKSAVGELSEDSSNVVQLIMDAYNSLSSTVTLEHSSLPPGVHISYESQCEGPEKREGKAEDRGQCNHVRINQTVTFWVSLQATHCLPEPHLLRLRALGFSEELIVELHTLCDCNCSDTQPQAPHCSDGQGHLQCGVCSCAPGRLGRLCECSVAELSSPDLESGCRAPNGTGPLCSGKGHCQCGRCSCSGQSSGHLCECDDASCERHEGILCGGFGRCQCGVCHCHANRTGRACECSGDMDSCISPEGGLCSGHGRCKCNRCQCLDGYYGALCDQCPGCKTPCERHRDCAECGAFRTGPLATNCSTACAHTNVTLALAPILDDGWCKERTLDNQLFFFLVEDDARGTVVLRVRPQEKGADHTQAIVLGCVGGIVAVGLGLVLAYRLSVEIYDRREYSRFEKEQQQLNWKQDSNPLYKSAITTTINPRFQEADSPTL
The test can be described thus: Cell adhesion assay, RPMI8866 cells adhering to MAdCAM coated plates. It is filed as cell-based. The settings on record: RPMI8866 cells on recombinant human MAdCAM coated plates; read-out: CA Assay (Example 7) IC50. The method, then: Three in vitro assays were used to examine the α4β7 mechanistic process used by cells: 1) ligand:receptor affinity, 2) the avidity of those interactions on a cell's surface, and 3) how those interactions fare under an imposing force. In Example 5, a Fluorescence Polarization (FP) assay is used to measure compound activity through binding competition with the fluorescein-labeled peptide. In Example 6, the potency of compounds against α4β7 is measured in the cell-based ligand binding assay (LBA), using RPMI 8866 cells incubated with the compound samples in competition with soluble MAdCAM-1 ligand. In Example 7, activity of compounds is evaluated in a cell adhesion assay that mechanistically tests what occurs in vivo when trafficking cells utilize α4β7 to adhere to MAdCAM-1 expressing HEVs of the gut during the extravasation process. In the cell adhesion assay of Example 7, a MAdCAM1-(Fc) is coated on plastic, and α4β7 expressing cells (RPMI-8866) are allowed to adhere to the coated surface in the presence of the test compounds. Next, the force of washing with buffer is applied to cells thereby testing the strength of that adhesion. Unattached cells are removed and the remaining adherent cells are quantified.
Example 7 describes a cell adhesion assay.
To each well of a 96 well plate, 100 ug of recombinant human MAdCAM in 100 ul PBS is added and incubated overnight at 4° C. After incubation MAdCAM is removed by aspiration and 200 ul of PBS+1% BSA is added to block the plate for 2 hours at 37° C. and 5% CO2. During this incubation dilution curves of compound are made in 100% DMSO in 96 well V bottom plates. 1.75 ul of diluted compounds are then transferred to a new 96 well U bottom plate containing 20 ul of assay media (phosphate free DMEM+25 mM HEPES+1% BSA). To this an additional 155 ul of assay media is added with mixing by pipetting up and down. This mixture is allowed to incubate for 15 minutes at 37° C. and 5% CO2. After incubation 175 ul of assay media containing 2e6/mL RPMI8866 cells is added to compound containing wells without mixing and plate is allowed to incubate for another 15 minutes at 37° C. and 5% CO2. During this incubation MAdCAM coated plates are removed from incubator and washed twice with 200 ul PBS+0.1% BSA. […] This plate is then incubated at 37° C. and 5% CO2 for 1 hour. After incubation plates are washed twice with 200 ul and once with 50 ul of phenol free RPMI+1% BSA. A final 50 ul of phenol free RPMI+1% BSA is added to wells after last wash. Next 50 ul of Promega cell titer glow is added to the wells. Plate is incubated on shaker for 2 minutes at 200 RPM followed by another 8 minutes off shaker before having the luminescence read on a Biotek Citation 5 plate reader. Raw data is converted to % inhibition compared to bottom of curve and analyzed using a 4-parameter non linear curve in Prism to determine IC50 and IC90.
Turning to `Cc1cc(F)c(C)c(C)c1-c1cc(C(F)(F)F)c(F)c([C@H](CC(=O)O)NC(=O)[C@H](CC(C)C)n2cc(CCN3CCC3)c(C(F)(F)F)cc2=O)c1F` [KT-P2, (3S)-3-(2-(5-(2-(azetidin-1-yl)ethyl)-2-oxo-4-(trifluoromethyl)pyridin-1(2H)-yl)-4-methylpentanamido)-3-(2,4,4′-trifluoro-2′,3′,6′-trimethyl-5-(trifluoromethyl)-[1,1′-biphenyl]-3-yl)propanoic Acid], the IC50 – broadly, the point on the concentration scale where inhibition reaches its midpoint – was under 5 nM.

For `Cc1cc(-c2c(C)cc(F)cc2C)cc([C@H](CC(=O)O)NC(=O)[C@H](CC(C)C)n2cc(CCN(C)C)cc(C(F)F)c2=O)c1F` [I-P2, (3S)-3-(4,4′-difluoro-2′,5,6′-trimethyl-[1,1′-biphenyl]-3-yl)-3-(2-(3-(difluoromethyl)-5-(2-(dimethylamino)ethyl)-2-oxopyridin-1(2H)-yl)-4-methylpentanamido)propanoic Acid], the IC50 is under 5 nM.

As to `Cc1cc(C)c(-c2cc(C)c(F)c([C@H](CC(=O)O)NC(=O)[C@H](CC(C)C)n3cc(CCCN(C)C)c(C(F)(F)F)cc3=O)c2F)c(C)c1F` [IW-P2, (3S)-3-(2-(5-(3-(dimethylamino)propyl)-2-oxo-4-(trifluoromethyl)pyridin-1(2H)-yl)-4-methylpentanamido)-3-(2,3′,4-trifluoro-2′,4′,5,6′-tetramethyl-[1,1′-biphenyl]-3-yl)propanoic Acid], the IC50 was in the range of 5 to 10 nM.

For `Cc1cc(C)c(-c2cc(C(F)(F)F)c(F)c([C@H](CC(=O)O)NC(=O)[C@H](CC(C)C)n3cc(CCN4CCC4)c(C(F)(F)F)cc3=O)c2F)c(C)c1` [IG-P2, (3S)-3-(2-(5-(2-(azetidin-1-yl)ethyl)-2-oxo-4-(trifluoromethyl)pyridin-1(2H)-yl)-4-methylpentanamido)-3-(2,4-difluoro-2′,4′,6′-trimethyl-5-(trifluoromethyl)biphenyl-3-yl)propanoic Acid], the IC50 was under 5 nM.

Regarding `Cc1cc(C2CC2)cc(C)c1-c1cc(C(F)(F)F)c(F)c([C@H](CC(=O)O)NC(=O)[C@H](CC(C)C)n2cc(CCCN(C)C)c(C(F)(F)F)cc2=O)c1F` [HU-P2, (3S)-3-(4′-cyclopropyl-2,4-difluoro-2′,6′-dimethyl-5-(trifluoromethyl)-[1,1′-biphenyl]-3-yl)-3-(2-(5-(3-(dimethylamino)propyl)-2-oxo-4-(trifluoromethyl)pyridin-1(2H)-yl)-4-methylpentanamido)propanoic Acid], the IC50 was 5 to 10 nM.

As to `Cc1cc(C)c(-c2cc(C(F)(F)F)c(F)c([C@H](CC(=O)O)NC(=O)[C@H](CC(C)C)n3cc(CCN(C)C)c(C(F)(F)F)cc3=O)c2F)c(C)c1` [IF-P2, (3S)-3-(2,4-difluoro-2′,4′,6′-trimethyl-5-(trifluoromethyl)-[1,1′-biphenyl]-3-yl)-3-(2-(5-(2-(dimethylamino)ethyl)-2-oxo-4-(trifluoromethyl)pyridin-1(2H)-yl)-4-methylpentanamido)propanoic Acid], the IC50 was under 5 nM.

For `Cc1cc(C)c(-c2cc(C(F)(F)F)c(F)c([C@H](CC(=O)O)NC(=O)[C@H](CC(C)C)n3cc(CCCN(C)C)c(C(F)(F)F)cc3=O)c2F)c(C)c1` [HZ-P2, (3S)-3-(2,4-difluoro-2′,4′,6′-trimethyl-5-(trifluoromethyl)biphenyl-3-yl)-3-(2-(5-(3-(dimethylamino)propyl)-2-oxo-4-(trifluoromethyl)pyridin-1(2H)-yl)-4-methylpentanamido)propanoic Acid], the IC50 is 5 to 10 nM.

For the molecule `Cc1ccc(F)c(C)c1-c1cc(C2CC2)c(F)c([C@H](CC(=O)O)NC(=O)[C@H](CC(C)C)n2cc(CCN3CCC3)c(C(F)(F)F)cc2=O)c1F` [HH-P2, (3S)-3-(2-(5-(2-(azetidin-1-yl)ethyl)-2-oxo-4-(trifluoromethyl)pyridin-1(2H)-yl)-4-methylpentanamido)-3-(5-cyclopropyl-2,3′,4-trifluoro-2′,6′-dimethyl-[1,1′-biphenyl]-3-yl)propanoic Acid], the IC50 lay in the range of 5 to 10 nM.

`Cc1cc(C)c(-c2cc(C3CC3)c(F)c([C@H](CC(=O)O)NC(=O)[C@H](CC(C)C)n3cc(CCN4CCC4)c(C(F)(F)F)cc3=O)c2F)c(C)c1` [HM-P2, (3S)-3-(2-(5-(2-(azetidin-1-yl)ethyl)-2-oxo-4-(trifluoromethyl)pyridin-1(2H)-yl)-4-methylpentanamido)-3-(5-cyclopropyl-2,4-difluoro-2′,4′,6′-trimethylbiphenyl-3-yl)propanoic Acid]: the IC50 was under 5 nM.

In the case of `Cc1ccn([C@@H](NC(C)C)C(=O)N[C@@H](CC(=O)O)c2cncc(-c3c(C)cccc3C)c2)c(=O)c1` [Example C-7, reference compound], the 50% inhibitory concentration (IC50) was in the range of 10 to 50 nM.

Turning to `Cc1cc(F)cc(C)c1-c1cc(C(F)(F)F)c(F)c([C@H](CC(=O)O)NC(=O)[C@H](CC(C)C)n2cc(CCCN(C)C)c(C(F)(F)F)cc2=O)c1F` [HW-P2, (3S)-3-(2-(5-(3-(dimethylamino)propyl)-2-oxo-4-(trifluoromethyl)pyridin-1(2H)-yl)-4-methylpentanamido)-3-(2,4,4′-trifluoro-2′,6′-dimethyl-5-(trifluoromethyl)-[1,1′-biphenyl]-3-yl)propanoic Acid], the IC50 is under 5 nM.
